# Target: T1, recombinant guanylate cyclase reporter cell line (Rattus norvegicus, UniProt P19686+P20595)
# T1 construct: expressed in transfected cells
# T1 sequence (P20595 1-619): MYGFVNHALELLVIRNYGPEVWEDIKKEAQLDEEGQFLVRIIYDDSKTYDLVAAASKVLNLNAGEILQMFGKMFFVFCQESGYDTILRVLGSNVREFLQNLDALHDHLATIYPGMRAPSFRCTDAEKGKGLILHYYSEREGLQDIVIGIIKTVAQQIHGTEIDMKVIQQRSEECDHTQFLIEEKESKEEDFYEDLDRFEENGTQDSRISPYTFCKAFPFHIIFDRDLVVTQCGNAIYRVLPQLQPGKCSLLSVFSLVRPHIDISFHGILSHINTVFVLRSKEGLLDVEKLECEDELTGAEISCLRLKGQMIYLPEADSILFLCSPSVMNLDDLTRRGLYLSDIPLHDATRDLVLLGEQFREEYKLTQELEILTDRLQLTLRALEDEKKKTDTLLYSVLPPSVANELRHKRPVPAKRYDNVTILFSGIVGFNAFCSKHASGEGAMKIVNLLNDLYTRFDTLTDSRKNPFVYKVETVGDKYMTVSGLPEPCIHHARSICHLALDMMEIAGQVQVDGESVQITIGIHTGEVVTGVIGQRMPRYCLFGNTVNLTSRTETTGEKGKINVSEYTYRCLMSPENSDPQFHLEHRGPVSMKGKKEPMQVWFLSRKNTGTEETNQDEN
# T1 sequence (P19686 1-690): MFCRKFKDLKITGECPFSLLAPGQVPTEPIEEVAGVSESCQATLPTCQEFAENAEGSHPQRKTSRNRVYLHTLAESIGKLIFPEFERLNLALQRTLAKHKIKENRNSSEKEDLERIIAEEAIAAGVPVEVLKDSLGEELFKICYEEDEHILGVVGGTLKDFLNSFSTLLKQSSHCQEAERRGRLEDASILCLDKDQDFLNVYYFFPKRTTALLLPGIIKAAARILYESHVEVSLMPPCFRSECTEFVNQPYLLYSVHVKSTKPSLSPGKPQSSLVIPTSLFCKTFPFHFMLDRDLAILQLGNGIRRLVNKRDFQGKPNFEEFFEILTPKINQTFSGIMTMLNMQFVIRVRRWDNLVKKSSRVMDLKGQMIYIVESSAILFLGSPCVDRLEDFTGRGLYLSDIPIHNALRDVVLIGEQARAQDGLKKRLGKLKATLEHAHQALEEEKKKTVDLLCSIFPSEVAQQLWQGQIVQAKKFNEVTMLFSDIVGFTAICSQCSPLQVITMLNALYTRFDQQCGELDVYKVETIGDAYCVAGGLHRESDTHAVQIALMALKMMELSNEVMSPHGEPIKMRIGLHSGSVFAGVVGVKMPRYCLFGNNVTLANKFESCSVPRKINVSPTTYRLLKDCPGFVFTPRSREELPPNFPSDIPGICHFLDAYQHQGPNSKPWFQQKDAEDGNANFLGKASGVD
# Assay: B-2. Action on recombinant guanylate cyclase reporter cell line
# Assay type: cell-based
# Conditions: MEC = minimal effective concentration; in some cases mean values from individual determinations
# How it was run: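 MEC values, meaning the lowest concentration producing a detectable response, were taken from a recombinant cyclase reporter cell assay. Where repeated, individual determinations were averaged.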
row,MEC [µM],Compound
1,0.10,"CCC(C)(N)CNC(=O)c1c(C)nc2c(OCc3c(F)cccc3F)cc(Cl)cn12 (single isomer, unassigned) [Example 194, ent-N-(2-Amino-2-methylbutyl)-6-chloro-8-[(2,6-difluorobenzyl)oxy]-2-methylimidazo[1,2-a]-pyridine-3-carboxamide]"
2,1.00,"Cc1nc2c(OCc3c(F)cccc3F)cccn2c1C(=O)NCC(C)(N)CO (racemic) [Example 273, rac-N-(2-Amino-3-hydroxy-2-methylpropyl)-8-[(2,6-difluorobenzyl)oxy]-2-methylimidazo[1,2-a]-pyridine-3-carboxamide]"
3,0.10,"CCC(C)(N)CNC(=O)c1c(C)nc2c(OCc3c(F)ccc(F)c3F)cc(C)cn12 (single isomer, unassigned; enantiomer b) [Example 275, ent-N-(2-Amino-2-methylbutyl)-2,6-dimethyl-8-[(2,3,6-trifluorobenzyl)oxy]imidazo[1,2-a]-pyridine-3-carboxamide (Enantiomer B)]"
4,3.00,"Cc1nc2c(OCc3c(F)cccc3F)cccn2c1C(=O)NC(C)(C)C(C)(C)N [Example 141, N-(3-Amino-2,3-dimethylbutan-2-yl)-8-[(2,6-difluorobenzyl)oxy]-2-methylimidazo[1,2-a]pyridine-3-carboxamide]"
5,0.30,"CCCC[C@H](CN(C)C)NC(=O)c1c(C)nc2c(OCc3c(F)cccc3F)cccn12 [Example 68, ent-8-[(2,6-difluorobenzyl)oxy]-N-[(2R)-1-(dimethylamino)hexan-2-yl]-2-methylimidazo[1,2-a]pyridine-3-carboxamide]"
6,0.30,"Cc1nc2c(OCc3c(F)cccc3F)cc(Cl)cn2c1C(=O)NCCC1(N)CCCCC1 [Example 33, N-[2-(1-Aminocyclohexyl)ethyl]-6-chloro-8-[(2,6-difluorobenzyl)oxy]-2-methylimidazo[1,2-a]-pyridine-3-carboxamide]"
7,0.30,"Cc1nc2c(OCC3CCCCC3)cccn2c1C(=O)NC(CN)c1ccc(F)c(F)c1 (single isomer, unassigned) [Example 178, ent-N-[2-Amino-1-(3,4-difluorophenyl)ethyl]-8-(cyclohexylmethoxy)-2-methylimidazo[1,2-a]-pyridine-3-carboxamide]"
8,0.30,"Cc1nc2c(OCc3c(F)cccc3F)cccn2c1C(=O)NC1CNc2ccccc21 (racemic) [Example 28, rac-8-[(2,6-difluorobenzyl)oxy]-N-(2,3-dihydro-1H-indol-3-yl)-2-methylimidazo[1,2-a] pyridine-3-carboxamide]"
9,0.30,"Cc1cc(OCc2c(F)cccc2F)c2nc(C)c(C(=O)NCC(C)(N)Cc3ncn(-c4cc(C)on4)n3)n2c1 (racemic) [Example 321, rac-N-{2-amino-2-methyl-3-[1-(5-methyl-1,2-oxazol-3-yl)-1H-1,2,4-triazol-3-yl]propyl}-8-[(2,6-difluorobenzyl)oxy]-2,6-dimethylimidazo[1,2-a]pyridine-3-carboxamide]"
10,0.20,"CCCC(C)(N)CNC(=O)c1c(C)nc2c(OCc3cccc(F)c3F)cc(C)cn12 (racemic) [Example 303, rac-N-(2-amino-2-methylpentyl)-8-[(2,3-difluorobenzyl)oxy]-2,6-dimethylimidazo[1,2-a]pyridine-3-carboxamide]"
11,0.3,"CCCC(C)(N)CNC(=O)c1c(C)nc2c(OCc3c(F)cccc3F)cc(OC)cn12 (single isomer, unassigned; enantiomer b) [Example 278, ent-N-(2-amino-2-methylpentyl)-8-[(2,6-difluorobenzyl)oxy]-6-methoxy-2-methylimidazo[1,2-a]pyridine-3-carboxamide (Enantiomer B)]"
12,1.0,"Cc1nc2c(OCc3c(F)cccc3F)cc(C(F)F)cn2c1C(=O)NCC(C)(N)CF (single isomer, unassigned; enantiomer a) [Example 291, ent-N-(2-amino-3-fluoro-2-methylpropyl)-8-[(2,6-difluorobenzyl)oxy]-6-(difluoromethyl)-2-methylimidazo[1,2-a]pyridine-3-carboxamide (Enantiomer A)]"
